Laboratory results as given in the NIST ThermoML archive (doi:10.1021/je800998u).

What was measured:
[1] = Molar enthalpy of transition or fusion; settings: Adiabatic calorimetry
[2] = for molar entropy / mass density: 101.33 kPa; for molar entropy: Small (less than 1 g) adiabatic calorimetry; for mass density: Pycnometric method; for vapor or sublimation pressure: Ebulliometric method (Recirculating still); for Triple point temperature: Adiabatic calorimetry

CC(C)COCC(C)C [diisobutyl ether]
Settings | Molar enthalpy of transition or fusion, [1] [kcal/mol] | Triple point temperature, [2] [K]
Crystal 1 | 2.71 | 190.4
Crystal 2 | 0.43 | 170.71

[2]
Settings | mass density [kg/m3] | molar entropy [J/K/mol] | vapor or sublimation pressure [kPa]
10 K, Crystal 2 | – | 0.4387 | –
15 K, Crystal 2 | – | 2.36 | –
20 K, Crystal 2 | – | 5.506 | –
25 K, Crystal 2 | – | 9.633 | –
30 K, Crystal 2 | – | 14.45 | –
35 K, Crystal 2 | – | 19.69 | –
40 K, Crystal 2 | – | 25.17 | –
45 K, Crystal 2 | – | 30.79 | –
50 K, Crystal 2 | – | 36.49 | –
55 K, Crystal 2 | – | 42.24 | –
60 K, Crystal 2 | – | 48.03 | –
65 K, Crystal 2 | – | 53.84 | –
70 K, Crystal 2 | – | 59.61 | –
75 K, Crystal 2 | – | 65.3 | –
80 K, Crystal 2 | – | 70.92 | –
85 K, Crystal 2 | – | 76.51 | –
90 K, Crystal 2 | – | 82.09 | –
95 K, Crystal 2 | – | 87.65 | –
100 K, Crystal 2 | – | 93.17 | –
110 K, Crystal 2 | – | 104 | –
120 K, Crystal 2 | – | 114.8 | –
130 K, Crystal 2 | – | 125.4 | –
140 K, Crystal 2 | – | 135.9 | –
150 K, Crystal 2 | – | 146.4 | –
160 K, Crystal 2 | – | 157.1 | –
170.71 K, Crystal 1 | – | 179.1 | –
170.71 K, Crystal 2 | – | 168.6 | –
180 K, Crystal 1 | – | 188.8 | –
190.4 K, Crystal 1 | – | 200.4 | –
190.4 K, Liquid | – | 259.9 | –
200 K, Liquid | – | 272.1 | –
210 K, Liquid | – | 284 | –
220 K, Liquid | – | 295.5 | –
230 K, Liquid | – | 306.6 | –
240 K, Liquid | – | 317.3 | –
250 K, Liquid | – | 327.8 | –
260 K, Liquid | – | 338 | –
270 K, Liquid | – | 348 | –
280 K, Liquid | – | 357.7 | –
290 K, Liquid | – | 367.2 | –
298.06 K, Liquid | 748.62 | – | –
298.07 K, Liquid | 748.49 | – | –
298.09 K, Liquid | 748.45 | – | –
298.14 K, Liquid | 748.69 | – | –
298.15 K, Liquid | – | 374.8 | –
298.18 K, Liquid | 748.69 | – | –
298.22 K, Liquid | 748.09 | – | –
300 K, Liquid | – | 376.5 | –
302.68 K, Liquid | 743.72 | – | –
302.73 K, Liquid | 744.19 | – | –
302.79 K, Liquid | 743.67 | – | –
302.81 K, Liquid | 744.14 | – | –
302.83 K, Liquid | 743.5 | – | –
302.86 K, Liquid | 743.47 | – | –
310 K, Liquid | – | 385.6 | –
312.72 K, Liquid | 733.67 | – | –
312.95 K, Liquid | 733.53 | – | –
312.99 K, Liquid | 733.64 | – | –
313.02 K, Liquid | 733.56 | – | –
313.03 K, Liquid | 734 | – | –
320 K, Liquid | – | 394.6 | –
330 K, Liquid | – | 403.5 | –
330.9 K, Liquid | – | – | 10.75
336.08 K, Liquid | – | – | 13.37
340 K, Liquid | – | 412.1 | –
341.66 K, Liquid | – | – | 16.76
347.21 K, Liquid | – | – | 20.79
350 K, Liquid | – | 420.8 | –
352.09 K, Liquid | – | – | 24.97
357.89 K, Liquid | – | – | 30.79
360 K, Liquid | – | 429.3 | –
363.27 K, Liquid | – | – | 37.12
369.46 K, Liquid | – | – | 45.66
370 K, Liquid | – | 437.7 | –
375.78 K, Liquid | – | – | 55.91
381.77 K, Liquid | – | – | 67.26
388.15 K, Liquid | – | – | 81.3
392.78 K, Liquid | – | – | 92.88
393.58 K, Liquid | – | – | 95
394.37 K, Liquid | – | – | 97.12
395.14 K, Liquid | – | – | 99.28
